Results taken from patent publication US9181214B2 (RHIZEN PHARMACEUTICALS SA, priority 2011, dated 2015).

Assays:
human GPR119 = molecular target: T1, human GPR119 (Homo sapiens, UniProt Q8TDV5); assay: In vitro cyclic AMP assay (Cisbio HTRF) in HEK293 cells transfected with human GPR119; type: cell-based; settings: cAMP; for activation at 10 µM: 1 h, % Induction @ 10 μM; for EC50: Emax varies between 65 to 80%
T1 construct: expressed in transfected cells; host or cells: HEK293 (transient transfection, Lipofectamine 2000)
T1 sequence (Q8TDV5 1-335): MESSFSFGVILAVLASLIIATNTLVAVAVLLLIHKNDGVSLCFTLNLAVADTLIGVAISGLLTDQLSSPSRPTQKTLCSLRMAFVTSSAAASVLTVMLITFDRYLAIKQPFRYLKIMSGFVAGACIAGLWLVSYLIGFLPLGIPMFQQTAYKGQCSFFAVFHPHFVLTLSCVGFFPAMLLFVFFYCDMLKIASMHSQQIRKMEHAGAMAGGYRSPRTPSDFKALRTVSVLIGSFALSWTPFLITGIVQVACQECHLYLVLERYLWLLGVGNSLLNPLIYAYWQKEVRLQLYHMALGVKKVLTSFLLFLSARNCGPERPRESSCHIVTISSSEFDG
Procedure: A. In Vitro Cyclic AMP Assay:
cAMP measurements were done using a Cisbio dynamic 2 HTRF kit (Cisbio, Bedford, Mass.) according to the manufacturer's protocol. Briefly, HEK293 cells (0.2×10^6/well) were plated in a 24 well plate and incubated overnight at 37° C. Cells were transfected with either empty vector DNA or human GPR119 expression plasmid DNA using Lipofectamine 2000 (Invitrogen). After 24 h, transfected cells were harvested, counted and plated at 1000 cells/5 ul in a black 384 welled small volume plate. Cells were treated with desired concentrations of compounds and incubated for 60 min at room temperature. Lysis buffer containing cAMP-d2 and cryptate conjugate were added and incubated for 1 h. HRTF ratio was measured on a microplate reader (BMG Labtech., Germany) at an excitation wavelength of 337 nm and emission wavelengths of 665 and 620 nm with an integration time of 400 μsec. Data were analyzed using Graphpad Prism (Graphpad software; San Diego Calif.) for EC50 determination.
The results are as given in Table I as % Induction@ 10 μM, Table II as % Induction@ 10 μM and EC 50 in nM

C57Bl/6J mice = assay: Oral glucose tolerance test (OGTT) in C57Bl/6J mice; type: in vivo; settings: single oral dose 1 h before 2.0 g/kg oral glucose, sitagliptin 10 mg/kg, vs vehicle
Procedure: FIG. 1 is a graph of blood glucose over time in C57BI/6J mice according to the oral glucose tolerance test (Biological Assay Procedure E) before and after oral administration of vehicle (control), compound A (Example 64@ 30 mg/kg), or sitagliptin (10 mg/kg @ 10 mg/kg).
FIG. 2 is a graph of blood glucose over time in C57BI/6J mice according to the oral glucose tolerance test (Biological Assay Procedure E) before and after oral administration of vehicle (control), compound […] (Example 42 @ 10 mg/kg), or sitagliptin (10 mg/kg @ 10 mg/kg).
E: Oral Glucose Tolerance Test (OGTT) in C57Bl/6J Mice:
After the quarantine period, 6 hr fasted animals were randomized and divided into various groups depending on their blood glucose levels. Test compounds or standard drug (sitagliptin) was prepared as a suspension in a vehicle consisting of 0.5% methylcellulose and Tween 80 as a suspending agent. The standard drug, Compound A (example-64), Compound B (example-42) or vehicle were administered by oral gavage in a volume of 10 mL/kg. 1 h after the test compounds, standard drug and vehicle administration, blood was sampled from the tail vein of mice at time 0 min (baseline) and at 30, 60, 90 and 120 min after an oral glucose load of 2.0 g/kg of body weight. Food, but not water, was withheld from the cages during the course of experiment. The area under curve (AUC) of experimental animals was compared with that of vehicle-treated control group. The results are shown in FIGS. 1 and 2 and are discussed below.

activation at 10 µM (human GPR119; Table I) [%]	melting point [°C]	SMILES	other results
48.8	193 to 196	CC(C)C(=O)N1CCC(c2nc3cc(-c4ccc(C(N)=O)c(F)c4)ccc3o2)CC1 [EXAMPLE-43, 2-Fluoro-4-[2-(1-isobutyrylpiperidin-4-yl)benzo[d]oxazol-5-yl]benzamide]	
38.7	226 to 229	NC(=O)c1ccc(-c2ccc3oc(C4CCN(c5ncc(F)cn5)CC4)nc3c2)cc1F [EXAMPLE-51, 2-Fluoro-4-{2-[1-(5-fluoropyrimidin-2-yl)piperidin-4-yl]benzo[d]oxazol-5-yl}benzamide]	
26.7	158 to 161	CNC(=O)c1ccc(-c2ccc3oc(C4CCN(C(=O)OC(C)C)CC4)nc3c2)cn1 [EXAMPLE-48, Isopropyl 4-{5-[6-(methylcarbamoyl)pyridin-3-yl]benzo[d]oxazol-2-yl}piperidine-1-carboxylate]	
27.5	186 to 190	CC(C)CC(=O)N1CCC(c2nc3cc(-c4ccc(C(N)=O)c(F)c4)ccc3o2)CC1 [EXAMPLE-39, 2-Fluoro-4-{2-[1-(3-methylbutanoyl)piperidin-4-yl]benzo[d]oxazol-5-yl}benzamide]	
10.6	149 to 153	CC(C)OC(=O)N1CCC(c2nc3ccc(-c4ccc(C(F)F)cc4)cc3o2)CC1 [EXAMPLE-33, Isopropyl 4-{6-[4-(difluoromethyl)phenyl]benzo[d]oxazol-2-yl}piperidine-1-carboxylate]	
33.1	179 to 181	CNS(=O)(=O)c1ccc(-c2ccc3oc(C4CCN(C(=O)OC(C)C)CC4)nc3c2)cc1 [EXAMPLE-47, Isopropyl 4-{5-[4-(N-methylsulfamoyl)phenyl]benzo[d]oxazol-2-yl}piperidine-1-carboxylate]	
16.6	178 to 182	CC(C)OC(=O)N1CCC(c2nc3cc(-c4ccc(C(N)=O)cc4Cl)ccc3o2)CC1 [EXAMPLE-38, Isopropyl 4-[5-(4-carbamoyl-2-chlorophenyl)benzo[d]oxazol-2-yl]piperidine-1-carboxylate]	
	220 to 222	CS(=O)(=O)c1ccc(-c2nc3cc(C4CCN(c5ncc(F)cn5)CC4)ccc3o2)c(F)c1 [EXAMPLE-81]	activation at 10 µM (human GPR119; Table II): 43%
53	147 to 150	CC(C)NC(=O)c1ccc(-c2ccc3oc(C4CCN(C(=O)OC(C)C)CC4)nc3c2)cc1F [EXAMPLE-46, Isopropyl 4-{5-[3-fluoro-4-(isopropylcarbamoyl)phenyl]benzo[d]oxazol-2-yl}piperidine-1-carboxylate]	
38.7	162 to 165	CC(C)OC(=O)N1CCC(c2nc3cc(-c4ccc(C(=O)NC5CC5)c(F)c4)ccc3o2)CC1 [EXAMPLE-50, Isopropyl 4-{5-[4-(cyclopropylcarbamoyl)-3-fluorophenyl]benzo[d]oxazol-2-yl}piperidine-1-carboxylate]	
	148 to 152	COCCN1CCC(c2nc3cc(-c4ccc(-n5cnnn5)cc4F)ccc3o2)CC1 [EXAMPLE-41, 5-[2-fluoro-4-(1H-tetrazol-1-yl)phenyl]-2-[1-(2-methoxyethyl)piperidin-4-yl]benzo[d]oxazole]	
	174 to 179	CC(C)(C)OC(=O)N1CCC(c2ccc3nc(-c4ccc(C(F)(F)F)cc4)oc3c2)CC1 [EXAMPLE-84, Tert-butyl 4-{2-[4-(trifluoromethyl)phenyl]benzo[d]oxazol-6-yl}piperidine-1-carboxylate]	activation at 10 µM (human GPR119; Table II): 13.2%
21.9	168 to 172	CC(C)CC(=O)N1CCC(c2nc3cc(-c4ccc(-n5cnnn5)cc4F)ccc3o2)CC1 [EXAMPLE-40, 1-{4-[5-(2-fluoro-4-(1H-tetrazol-1-yl)phenyl]benzo[d]oxazol-2-yl]piperidin-1-yl}-3-methylbutan-1-one]	
56.4	145 to 147	CC(C)OC(=O)N1CCC(c2nc3cc(-c4ccc(C(=O)NCCO)c(F)c4)ccc3o2)CC1 [EXAMPLE-45, Isopropyl 4-{5-[3-fluoro-4-(2-hydroxyethylcarbamoyl)phenyl]benzo[d]oxazol-2-yl}piperidine-1-carboxylate]	
6.56	194 to 197	CC(C)OC(=O)N1CCC(c2nc3cc(-c4ccc(C(N)=O)cc4F)ccc3o2)CC1 [EXAMPLE-37, Isopropyl 4-[5-(4-carbamoyl-2-fluorophenyl)benzo[d]oxazol-2-yl]piperidine-1-carboxylate]	
4.83	227 to 230	CC(C)OC(=O)N1CCC(c2nc3cc(-c4ccc(C(N)=O)cn4)ccc3o2)CC1 [EXAMPLE-36, Isopropyl 4-[5-(5-carbamoylpyridin-2-yl)benzo[d]oxazol-2-yl]piperidine-1-carboxylate]	
64.8	178 to 181	CC(C)OC(=O)N1CCC(c2nc3ccc(-c4ccc(C(N)=O)c(F)c4)cc3o2)CC1 [EXAMPLE-44, Isopropyl 4-[6-(4-carbamoyl-3-fluorophenyl)benzo[d]oxazol-2-yl]piperidine-1-carboxylate]	EC50 (human GPR119; Table I): 25 to 50 nM
32.9	151 to 154	CNC(=O)c1ccc(-c2ccc3oc(C4CCN(C(=O)OC(C)C)CC4)nc3c2)cc1C [EXAMPLE-49, Isopropyl 4-{5-[3-methyl-4-(methylcarbamoyl)phenyl]benzo[d]oxazol-2-yl}piperidine-1-carboxylate]	
		N[C@@H](CC(=O)N1CCn2c(nnc2C(F)(F)F)C1)Cc1cc(F)c(F)cc1F [Sitagliptin, sitagliptin, reference compound]	lowered AUCglucose (C57Bl/6J mice; FIG. 1 study, Compound A 30 mg/kg): 59%; lowered AUCglucose (C57Bl/6J mice; FIG. 2 study, Compound B 10 mg/kg): 50%
0.28	209 to 212	CS(=O)(=O)N1CCC(c2nc3cc(-c4ccc(-n5cnnn5)cc4F)ccc3o2)CC1 [EXAMPLE-35, 5-[2-fluoro-4-(1H-tetrazol-1-yl)phenyl]-2-[1-(methylsulfonyl)piperidin-4-yl]benzo[d]oxazole]	
66.7		CC(C)(C)OC(=O)N1CCC(c2nc3cc(-c4ccc(S(C)(=O)=O)cc4F)cc(F)c3o2)CC1 [EXAMPLE-8, Tert-butyl 4-{7-fluoro-5-[2-fluoro-4-(methylsulfonyl)phenyl]benzo[d]oxazol-2-yl}piperidine-1-carboxylate]	EC50 (human GPR119; Table I): 25 to 50 nM
67.5		CCC(C)OC(=O)N1CCC(c2nc3cc(-c4ccc(-n5cnnn5)cc4F)ccc3o2)CC1 (stereo not shown) [EXAMPLE-24, Sec-butyl 4-{5-[2-fluoro-4-(1H-tetrazol-1-yl)phenyl]benzo[d]oxazol-2-yl}piperidine-1-carboxylate]	EC50 (human GPR119; Table I): ≤ 25 nM
		CC(C)(C)OC(=O)N1CCC(c2ccc3oc(-c4ccc(S(C)(=O)=O)cc4F)nc3c2)CC1 [EXAMPLE-60, Tert-butyl 4-{2-[2-fluoro-4-(methylsulfonyl)phenyl]benzo[d]oxazol-5-yl}piperidine-1-carboxylate]	activation at 10 µM (human GPR119; Table II): 72.8%; EC50 (human GPR119; Table II): 25 to 50 nM
	239 to 242	CC(C)OC(=O)N1CCC(c2nc3cc(-c4ccc(C(=O)O)cn4)ccc3o2)CC1 [EXAMPLE-34, 6-{2-[1-(isopropoxycarbonyl)piperidin-4-yl]benzo[d]oxazol-5-yl}nicotinic acid]	
		CC(C)(C)OC(=O)N1CCC(c2ccc3oc(-c4ccc(C(F)(F)F)cc4)nc3c2)CC1 [EXAMPLE-70, Tert-butyl 4-{2-[4-(trifluoromethyl)phenyl]benzo[d]oxazol-5-yl}piperidine-1-carboxylate]	activation at 10 µM (human GPR119; Table II): 64.7%; EC50 (human GPR119; Table II): ≤ 25 nM
